Test results taken from patent US6344324B2, “Quantification of cellular injury using expression of a fluorescent protein under the control of the GADD153 promoter” (Research Development Foundation, priority 2000, dated 2002).
“And” between values parts separate entries of the source, which are not always exact repeats. Equal values may be shown once. Read-outs that look alike come from different tables or passages of the source. Starred links: 1 amine or outer side, 2 acyl side, 3 side chain; linkers in the order of their positions; H or OH if unused. Positions of bridges follow the written chain, without caps; N, C: chain ends. Non-standard residues stand in square brackets, D forms with d. Residues, ends and D or L forms follow the SMILES beside them. Chains are numbered I, II in the order given. Actinocin(9to1) = Cc1c2oc3c(C)ccc(C(=O)[*:1])c3nc-2c(C(=O)[*:2])c(N)c1=O; NMeV = CN[C@H](C(=O)O)C(C)C; Sar = CNCC(=O)O

Assays:
[1] = tested on: GADD153 promoter activity in T10b45 cells
Protocol: T10b45 cells were harvested 4 days following exposure to the injurious agent, washed once and resuspended in PBS. Cytometric analysis was performed using a Becton Dickinson (Mountain View, Calif.) FACScan equipped with an argon ion laser tuned to 488 nm to excite EGFP, and a 515/545 bandpass filter to monitor the green fluorescence emitted by EGFP. The acquired data were analyzed with the CELLQuest program. Twenty thousand events were collected for each sample. An analytical gate was set such that less than 0.2% of the untreated cells exceeded the gate. The relative fold induction was calculated by dividing the percent of treated cells in the gated region by that of untreated cells harvested at same time.
Three hundred thousand T10b45 cells were seeded into 60 mm tissue culture dishes and treated 24 h later so that all experiments were performed with cells in the logarithmic phase of growth. The chemical agents were added directly to the tissue culture media. At the indicated times, the medium was removed and the cells were washed twice with serum-free medium and then incubated for 4 days in fresh drug-free medium at 37° C. following which they were subjected to flow cytometric analysis.

T10b45 cells = test: Clonogenic (colony-forming) assay; format: cell-based, human
T10b45 xenografts = test: EGFP expression in T10b45 xenografts in vivo; design: species or system BALB/c nu/nu mice; conditions: for tumor cells expressing EGFP: tumors harvested 4 days later, ± SD
GADD153 mRNA = conditions: UMSCC10b xenografts in nude mice, 50 mg/kg, 24 hr post-treatment, relative to untreated mice; ± SD; cited from earlier work
[2] = in this strain (BALB/c nu/nu mice); cited from earlier work
[3] = T10b45 cells, 4 days after the insult, conditions of maximal activation (Table 1)
[4] = quotient of fold increase in EGFP-expressing cells and Pt in DNA at 10 × IC50, mean ± SD, n = 3
[5] = colony-forming assay, 1 hour drug exposure, colonies scored after 14 days, mean ± SD, n = 3
[6] = 50 μM, 1 h exposure, GFP 4 days after treatment, relative to untreated control
[7] = 50 nM, 4 h exposure, GFP 4 days after treatment, relative to untreated control
[8] = 500 μM, 1 h exposure, GFP 4 days after treatment, relative to untreated control

Which results are given for O=c1[nH]cc(F)c(=O)[nH]1 [5-Fluorouracil]?
Induction Ratio ([1]; 50 μM, 4 h exposure, GFP 4 days after treatment, % GFP expressing cells relative to untreated control): 3.0; activation of EGFP expression (in words) [1, 3]: relatively impotent

Which results are given for Cc1c2oc3c(C)ccc(C(=O)N[C@@H]4C(=O)N[C@H](C(C)C)C(=O)N5CCC[C@H]5C(=O)N(C)CC(=O)N(C)[C@@H](C(C)C)C(=O)O[C@@H]4C)c3nc-2c(C(=O)N[C@@H]2C(=O)N[C@H](C(C)C)C(=O)N3CCC[C@H]3C(=O)N(C)CC(=O)N(C)[C@@H](C(C)C)C(=O)O[C@@H]2C)c(N)c1=O [Actinomycin D, actinomycin D] (I: T[dV]P[Sar][NMeV] / II: T[dV]P[Sar][NMeV]; ester I:1-I:C, II:1-II:C; linker I:N-II:N via Actinocin(9to1))?
Induction Ratio [1]: 7.6; activation of EGFP expression (in words) [1]: strongly activated

Which “Induction Ratio” value ([1]; 20 μM, 24 h exposure, GFP 4 days after treatment, relative to untreated control) does the source give for C[C@@]1(CO)[C@H](O)CC[C@@]2(C)[C@H]1CC[C@H]1C[C@@H]3C[C@@]12CC[C@]3(O)CO [Aphidicolin, aphidicolin] here?
Its value is 2.5.

What about the “activation of EGFP expression (in words)” value [1, 3] of the same compound?
Its value is “relatively impotent”.

For O=NN(CCCl)C(=O)NCCCl [BCNU], which “Induction Ratio” value [1] is on record?
The value was 4.

And the “activation of EGFP expression (in words)” value [1]?
The value was “failed to produce significant activation”.

Which “GFP fold induction at 10 × IC50” value [1] does the source give for N.N.O=C([O-])C1(C(=O)[O-])CCC1.[Pt+2] [Carboplatin, carboplatin] here?
The value was 23 ± 2.6.

What about the “Induction Ratio” value ([1]; 200 μM, 42 h exposure (so in the source), GFP 4 days after treatment, relative to untreated control) of the same compound?
Its value is 33.

And the “activation of EGFP expression (in words)” value [1, 3]?
Its value is “strongly activated”.

And the “Relative EGFP activation potency at 10 × IC50” value [1, 4]?
Its value is 750.4 ± 22.1 fold induction/ng Pt/ug DNA.

And the IC50 (T10b45 cells; [5])?
The IC50 was 10.7 ± 0.83 µM.

With N.N.[Cl][Pt][Cl] [Cisplatin] as the compound, how does the “GFP fold induction at 10 × IC50” value [1] read?
Its value is 38 ± 3.2.

What about the “Relative EGFP activation potency at 10 × IC50” value [1] of the same compound?
Its value is 825.0 ± 29.4 fold induction/ng Pt/ug DNA.

What about the “Induction Ratio” value [1, 6] of the same compound?
Its value is 42.

And the “activation of EGFP expression (in words)” value [1, 3]?
The value was “strongly activated”.

What about the IC50 (T10b45 cells; [5]) of the same compound?
Its IC50 is 4.2 ± 0.03 µM.

What about the “fold increase in the fraction of EGFP-expressing cells” value (T10b45 xenografts; 5 mg/kg single i.p., 4 days, relative to untreated tumors) of the same compound?
Its value is 3.8 fold.

What about the “fold increase in the fraction of cells expressing EGFP” value (T10b45 xenografts; 15 mg/kg single i.p., 4 days, relative to untreated tumors) of the same compound?
Its value is 29 fold and 29.2±6.2 fold.

And the “tumor cells expressing EGFP” value (T10b45 xenografts; cisplatin 5 mg/kg single i.p.)?
The value was 0.49±0.5%.

What about the “tumor cells expressing EGFP” value (T10b45 xenografts; cisplatin 15 mg/kg single i.p., untreated 0.13±0.02 %) of the same compound?
The value was 3.8±0.8%.

What about the “GADD153 mRNA level increase” value (GADD153 mRNA) of the same compound?
Its value is 3.0±0.4 fold.

What about the LD10 [2] of the same compound?
Its LD10 is 12 mg/kg.

For COc1cccc2c1C(=O)c1c(O)c3c(c(O)c1C2=O)C[C@@](O)(C(=O)CO)C[C@@H]3O[C@H]1C[C@H](N)[C@H](O)[C@H](C)O1 [Doxorubicin, doxorubicin], which “Induction Ratio” value ([1]; 100 nM, 4 h exposure, GFP 4 days after treatment, relative to untreated control) is on record?
The value was 2.4.

What about the “activation of EGFP expression (in words)” value [1, 3] of the same compound?
The value was “relatively impotent”.

What does the source list for COc1cc([C@@H]2c3cc4c(cc3[C@@H](O[C@@H]3O[C@@H]5CO[C@@H](C)O[C@H]5[C@H](O)[C@H]3O)[C@H]3COC(=O)[C@H]23)OCO4)cc(OC)c1O [Etoposide, etoposide]?
Induction Ratio ([1]; 5 μM, 4 h exposure, GFP 4 days after treatment, relative to untreated control): 4; activation of EGFP expression (in words) [1, 3]: relatively impotent

Which “Induction Ratio” value [1, 7] does the source give for Nc1ccn([C@@H]2O[C@H](CO)[C@@H](O)C2(F)F)c(=O)n1 [Gemcitabine, gemcitabine] here?
The value was 0.6.

What about the “activation of EGFP expression (in words)” value [1, 3] of the same compound?
Its value is “relatively impotent”.

Which results are given for OO [Hydrogen peroxide, hydrogen peroxide]?
Induction Ratio [1, 8]: 13; activation of EGFP expression (in words) [1, 3]: strongly activated

Which results are given for CC(=O)[O][Pt]([NH2])([Cl])([Cl])([NH]C1CCCCC1)[O]C(C)=O [JM216]?
GFP fold induction at 10 × IC50 [1]: 11 ± 3.2; Induction Ratio ([1]; 150 μM, 1 h exposure, GFP 4 days after treatment, relative to untreated control): 43; activation of EGFP expression (in words) [1, 3]: strongly activated; Relative EGFP activation potency at 10 × IC50 [1, 4]: 70.6 ± 20.5 fold induction/ng Pt/ug DNA; IC50 (T10b45 cells; [5]): 4.5 ± 0.35 µM

Which “GFP fold induction at 10 × IC50” value [1] does the source give for O=C1[O][Pt]2([NH][C@@H]3CCCC[C@H]3[NH]2)[O]C1=O [Oxaliplatin] here?
The value was 100 ± 5.3.

And the “Induction Ratio” value [1]?
Its value is 105.

What about the “Relative EGFP activation potency at 10 × IC50” value [1] of the same compound?
The value was 5496.0 ± 655.6 fold induction/ng Pt/ug DNA.

And the “activation of EGFP expression (in words)” value [1]?
The value was “strongly activated”.

And the IC50 (T10b45 cells)?
The IC50 was 5.1 ± 0.29 µM.

For CC(=O)O[C@H]1C(=O)[C@@]2(C)[C@H]([C@H](OC(=O)c3ccccc3)[C@]3(O)C[C@H](OC(=O)[C@H](O)[C@@H](NC(=O)c4ccccc4)c4ccccc4)C(C)=C1C3(C)C)[C@]1(OC(C)=O)CO[C@@H]1C[C@@H]2O [Paclitaxel, paclitaxel], which “Induction Ratio” value ([1]; 70 nM, 4 h exposure, GFP 4 days after treatment, relative to untreated control) is on record?
Its value is 2.8.

What about the “activation of EGFP expression (in words)” value [1, 3] of the same compound?
Its value is “relatively impotent”.

Which “Induction Ratio” value [1, 7] does the source give for Cc1nc2ccc(CN(C)c3ccc(C(=O)N[C@@H](CCC(=O)O)C(=O)O)s3)cc2c(=O)[nH]1 [Raltitrexed] here?
The value was 0.6.

What about the “activation of EGFP expression (in words)” value [1, 3] of the same compound?
The value was “relatively impotent”.

Which “GFP fold induction at 10 × IC50” value [1] does the source give for N[C@@H]1CCCC[C@H]1N.[Cl][Pt+2]([Cl])([Cl])[Cl] [Tetraplatin, tetraplatin] here?
Its value is 120 ± 7.8.

And the “Induction Ratio” value [1, 6]?
Its value is 143.

And the “activation of EGFP expression (in words)” value [1, 3]?
The value was “strongly activated”.

And the “Relative EGFP activation potency at 10 × IC50” value [1, 4]?
Its value is 10482.7 ± 516.9 fold induction/ng Pt/ug DNA.

And the IC50 (T10b45 cells; [5])?
Its IC50 is 3.3 ± 0.17 µM.

With CC[C@@]1(O)C(=O)OCc2c1cc1n(c2=O)Cc2cc3c(CN(C)C)c(O)ccc3nc2-1 [Topotecan] as the compound, how does the “Induction Ratio” value ([1]; 20 nM, 4 h exposure, GFP 4 days after treatment, relative to untreated control) read?
The value was 1.3.

And the “activation of EGFP expression (in words)” value [1, 3]?
Its value is “relatively impotent”.

Which “GFP fold induction at 10 × IC50” value [1] does the source give for N.N.[Cl][Pt+2][Cl] [Transplatin, transplatin] here?
The value was 10 ± 2.0.

What about the “Induction Ratio” value [1, 8] of the same compound?
The value was 1.

What about the “activation of EGFP expression (in words)” value [1, 3] of the same compound?
Its value is “failed to produce significant activation”.

What about the “Relative EGFP activation potency at 10 × IC50” value [1, 4] of the same compound?
Its value is 41.3 ± 8.5 fold induction/ng Pt/ug DNA.

What about the IC50 (T10b45 cells; [5]) of the same compound?
The IC50 was 379 ± 31.6 µM.
